# In patent publication US20250243219A1, “MACROCYCLIC COMPOUNDS AND USES THEREOF” (Cypralis Limited, priority 2022, published 2025):
# Where two headings read alike, the source gives them in different places.
# Experiments:
# cyclophilin A = cyclophilin A (Homo sapiens (Human), UniProt P62937); assay: Functional peptidyl prolyl isomerase (PPIase) spectrophotometric assay, cyclophilin A; format: biochemical; details: first value of CypA/D cell
# Summary of the method: (§1)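 Cuvette-based UV/Vis assay of PPIase-catalysed cis-to-trans isomerisation of a peptide substrate. First-order rate constants fitted to absorbance, background rate subtracted. Ki derived from rate constant versus inhibitor concentration, typically 6-point curves in duplicate.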
# [1] = Pharmacokinetics in mice, subcutaneous administration; format: in vivo, mice (strain FVB/N); details: subcutaneous 10 mg/kg; for Tmax / Cmax / half-life: sc
# Experimental: Test compounds were administered to rodents (mice or rats) either orally, subcutaneously or intravenously. To determine blood or plasma concentrations blood samples were taken at different time points and analysed for the concentration of test compound by LC/MS. Brain concentrations were measured by sacrificing animals and LC/MS analysis of brain homogenate. FIG. 3 illustrates graphs for the concentration (ng/ml) Compound (2) in blood, blood plasma and in the brain at 30 minutes to 7 hours after the same dosage administered sub-cutaneously.
# pancreatic acinar cells = assay: Protection of pancreatic acinar cells against TLCS toxicity (propidium iodide uptake, FIG. 1); format: cell-based; details: propidium iodide uptake as measure of necrotic cells
# From the text: FIG. 1 propidium iodide (PI) up-take as a measure of the number of dead pancreatic acinar cells (through necrosis) as a percentage against a number of treatments with Compound (2) and cyclosporin A and controls in an in-vitro model based on pancreatic acinar cells against the toxicity of the bile acid taurolithocholic acid-3-sulphate (TLCS);
# WO 2021/115299 (Zuo) discloses compounds that protect against acute kidney injury caused by many different causes. The same compounds are disclosed in U.S. Pat. No. 6,583,265 (C-Chem AG) as cyclophilin inhibitors. There is no enzyme inhibiting, receptor binding or ion channel activity known for these compounds other than inhibition of cyclophilins. It can therefore be concluded that the compounds of the present invention, which are potent cyclophilin inhibitors but have no activity on other enzymes or receptors, have the same spectrum of properties.
# FIG. 1 illustrates two sets of results.
# cyclophilin D = cyclophilin D (Homo sapiens (Human), UniProt P30405); assay: Functional peptidyl prolyl isomerase (PPIase) spectrophotometric assay, cyclophilin D; format: biochemical; details: second value of CypA/D cell; read-out: Ki CypD
# Sequence of cyclophilin D (P30405 30-207, species assumed): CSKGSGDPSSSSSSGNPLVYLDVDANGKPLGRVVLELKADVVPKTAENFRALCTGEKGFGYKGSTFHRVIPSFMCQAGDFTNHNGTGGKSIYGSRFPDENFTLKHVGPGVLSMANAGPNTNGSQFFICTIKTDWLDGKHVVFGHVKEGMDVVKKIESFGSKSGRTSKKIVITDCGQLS
# Summary of the method: as §1
# [2] = Pharmacokinetics in mice, oral dose; format: in vivo, mice (strain FVB/N); details: oral 10 mg/kg
# Experimental: Test compounds were administered to rodents (mice or rats) either orally, subcutaneously or intravenously. To determine blood or plasma concentrations blood samples were taken at different time points and analysed for the concentration of test compound by LC/MS. Brain concentrations were measured by sacrificing animals and LC/MS analysis of brain homogenate. FIG. 2 illustrates graphs for the concentration (ng/ml) Compound (2) in blood, blood plasma and in the brain at 30 minutes to 7 hours after oral treatment.
# [3] = Blood-brain barrier penetration, intravenous dosing; format: in vivo, rodents (mice or rats); details: 3 mg/kg intravenous
# Experimental: Test compounds were administered to rodents (mice or rats) either orally, subcutaneously or intravenously. To determine blood or plasma concentrations blood samples were taken at different time points and analysed for the concentration of test compound by LC/MS. Brain concentrations were measured by sacrificing animals and LC/MS analysis of brain homogenate.
# The results for Compounds (2), (19), (6) and (27) are summarised in Table 6 showing concentrations of the Compounds in blood plasma and the brain.
# [4] = test system: permeabilised HepG2 cells; assay: Calcium retention capacity (CRC) assay in permeabilised HepG2 cells (MPTP opening); format: cell-based, human; parameters: CRC [10 μM]: unit not given here; details: compound at 10 μM
# Summary of the method: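 Digitonin-permeabilised HepG2 cells received trains of calcium pulses (typically 5 μM) monitored with Calcium Green-5N until buffering failed, marking permeability transition. Runs with and without compound; calcium retained at 10 μM compound expressed as ratio versus cyclosporin A positive control.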
# [5] = test system: kainic acid treated NMRI mice; assay: Kainic acid model of epilepsy; format: in vivo, Male NMRI mice; details: 150 mg/kg for 3 consecutive days, kainic acid 45 mg/kg s.c., n=21
# Experimental: Male NMRI mice (n=21) were given 150 mg/kg of Compound (2) (60% PEG400/water solution) for 3 consecutive days. 2 hours after the last dose the animals were given subcutaneously 45 mg/kg of kainic acid. Behaviour was monitored for 3 hours. On day 7 after receiving kainic acid the animals were sacrificed and brain analysed by immunohistochemistry for markers of neurodegeneration.
# [6] = FVB/N, mouse, brain, read-out: Tmax Brain
# [7] = FVB/N, mouse, plasma, read-out: Cmax Plasma
# [8] = FVB/N, mouse, plasma, read-out: T1/2 Plasma (converted)
# [9] = FVB/N, mouse, plasma, read-out: Tmax Plasma
# [10] = FVB/N, mouse, whole blood, read-out: Cmax Whole blood
# [11] = FVB/N, mouse, whole blood, read-out: T1/2 Whole blood (converted)
# [12] = FVB/N, mouse, whole blood, read-out: Tmax Whole blood
# Sequence of cyclophilin A (P62937 whole entry, species assumed): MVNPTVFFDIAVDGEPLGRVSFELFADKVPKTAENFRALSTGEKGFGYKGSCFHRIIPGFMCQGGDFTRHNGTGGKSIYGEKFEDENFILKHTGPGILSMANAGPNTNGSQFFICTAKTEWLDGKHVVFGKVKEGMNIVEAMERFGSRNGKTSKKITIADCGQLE
compound,measurement,setting,value
CC(C)[C@@H]1OC(=O)C(C)(C)/C=C/c2ccc3ccc(nc3c2)N(C)NC(=O)[C@@H]2CCCN(N2)C(=O)[C@H](C)NC1=O [Compound (2)],Ki,cyclophilin A,5 nM
same,Kp,"[1]; FVB/N, mouse, brain and blood",0.9
same,Tmax,[1]; [6],2 h
same,Cmax,[1]; [7],1640 ng/mL
same,half-life,[1]; [8],1.77 h
same,Tmax,[1]; [9],0.5 h
same,Cmax,[1]; [10],2640 ng/mL
same,half-life,[1]; [11],3.17 h
same,Tmax,[1]; [12],0.5 h
same,AUC0-t Brain,[1],3370 ng/mL/h
same,AUC0-t Plasma,[1],3730 ng/mL/h
same,AUC0-t Whole blood,[1],8150 ng/mL/h
same,Blood/plasma,[1],2.2 Ratio
same,Cmax Brain,[1],563 ng/mL
same,Protection of pancreatic acinar cells against toxicity of TLCS,pancreatic acinar cells,protect pancreatic acinar cells against the toxicity
same,Ki,cyclophilin D,17 nM
same,Kp,"[2]; FVB/N, mouse, brain and blood",0.72
same,Tmax,[2]; [6],7 h
same,Cmax,[2]; [7],582 ng/mL
same,half-life,[2]; [8],3 h
same,Tmax,[2]; [9],0.5 h
same,Cmax,[2]; [10],1490 ng/mL
same,half-life,[2]; [11],5.45 h
same,Tmax,[2]; [12],0.5 h
same,AUC0-t Plasma,[2],3180 ng/mL/h
same,AUC0-t Whole blood,[2],12500 ng/mL/h
same,Blood/plasma,[2],2.87 Ratio
same,Cmax Brain,[2],297 ng/mL
same,Blood-brain barrier passage,[3],passed the blood-brain barrier
same,concentration at 30 min,"[3]; brain, read-out: Brain concentration",170 ng/mL
same,concentration at 30 min,"[3]; plasma, read-out: Plasma concentration",222 ng/mL
same,CRC [10 μM],[4]; digitonin permeabilised HepG2 cells,26
same,CRC [10 μM] (ratio vs CsA),"[4]; normalised to cyclosporin A, value in brackets",0.9875
same,Number of animals with visible signs of neurodegeneration,[5]; control group 5 animals,2 animals
same,Percent of animals with visible signs of neurodegeneration,[5]; control group 24%,9%
